Results taken from ChEMBL document CHEMBL3745631, “Discovery of highly potent and selective Bruton's tyrosine kinase inhibitors: Pyridazinone analogs with improved metabolic stability” (Bioorg Med Chem Lett, 2016).

Assays:
Liver microsome [1] = experiment: Intrinsic clearance in human liver microsomes at 1 uM by LC-MS/MS analysis in absence of NADPH; type: ADME
[2] = biological target: Tyrosine-protein kinase BTK (Mus musculus, UniProt P35991); experiment: Inhibition of BTK in Balb/c mouse B cells assessed as inhibition of anti-IgM-stimulated CD86 expression by flow cytometry; type: cell-based
Liver microsome [3] = experiment: Intrinsic clearance in human liver microsomes at 1 uM by LC-MS/MS analysis in presence of NADPH; type: ADME
Hepatocyte = experiment: Intrinsic clearance in human hepatocytes at 1 uM by LC-MS/MS analysis; type: ADME, cell-based
[4] = biological target: Tyrosine-protein kinase BTK (Homo sapiens, UniProt Q06187); experiment: Inhibition of BTK (unknown origin) by Lanthascreen assay
Sequence of Tyrosine-protein kinase BTK (Homo sapiens, UniProt Q06187) (Q06187 whole entry): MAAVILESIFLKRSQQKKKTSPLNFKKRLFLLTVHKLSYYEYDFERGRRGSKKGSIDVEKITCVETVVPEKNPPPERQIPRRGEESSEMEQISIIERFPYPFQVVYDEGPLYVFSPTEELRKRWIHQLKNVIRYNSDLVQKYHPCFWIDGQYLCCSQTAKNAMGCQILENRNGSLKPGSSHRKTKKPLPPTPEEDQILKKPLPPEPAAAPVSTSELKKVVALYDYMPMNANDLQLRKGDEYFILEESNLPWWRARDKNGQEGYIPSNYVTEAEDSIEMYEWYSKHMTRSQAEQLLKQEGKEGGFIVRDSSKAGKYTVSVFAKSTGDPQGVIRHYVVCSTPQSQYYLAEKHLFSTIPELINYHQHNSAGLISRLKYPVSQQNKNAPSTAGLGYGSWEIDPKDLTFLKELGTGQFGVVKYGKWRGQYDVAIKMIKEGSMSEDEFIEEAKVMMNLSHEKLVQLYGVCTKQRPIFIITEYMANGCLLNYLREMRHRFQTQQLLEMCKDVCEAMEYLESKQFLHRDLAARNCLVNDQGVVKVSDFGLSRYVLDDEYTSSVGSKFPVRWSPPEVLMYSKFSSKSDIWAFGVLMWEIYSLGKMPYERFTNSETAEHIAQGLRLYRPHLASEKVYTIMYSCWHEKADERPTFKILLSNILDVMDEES

Sequence of Tyrosine-protein kinase BTK (Mus musculus, UniProt P35991) (P35991 whole entry): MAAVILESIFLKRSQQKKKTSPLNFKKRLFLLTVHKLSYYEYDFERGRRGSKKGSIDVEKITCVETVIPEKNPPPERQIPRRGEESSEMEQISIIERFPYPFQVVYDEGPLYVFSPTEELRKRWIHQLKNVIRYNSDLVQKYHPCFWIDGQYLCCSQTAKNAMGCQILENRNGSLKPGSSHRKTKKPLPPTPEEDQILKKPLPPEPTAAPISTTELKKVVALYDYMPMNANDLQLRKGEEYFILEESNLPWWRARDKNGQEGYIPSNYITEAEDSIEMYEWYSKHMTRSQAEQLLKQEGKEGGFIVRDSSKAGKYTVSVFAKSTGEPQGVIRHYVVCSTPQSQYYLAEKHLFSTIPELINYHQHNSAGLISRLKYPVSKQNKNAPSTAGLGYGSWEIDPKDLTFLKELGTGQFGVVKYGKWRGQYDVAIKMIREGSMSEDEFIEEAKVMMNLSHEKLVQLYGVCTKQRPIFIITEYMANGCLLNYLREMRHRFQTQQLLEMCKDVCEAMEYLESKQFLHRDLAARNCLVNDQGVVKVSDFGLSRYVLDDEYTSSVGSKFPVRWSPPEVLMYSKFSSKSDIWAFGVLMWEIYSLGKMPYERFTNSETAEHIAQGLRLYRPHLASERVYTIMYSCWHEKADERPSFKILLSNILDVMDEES

Row | CLH (Liver microsome [1]) | IC50 [2] | CLH (Liver microsome [3]) | CLH (Hepatocyte) | IC50 [4] | Compound
1 | < 6 mL/min/kg |  |  |  |  | Cc1ccc(-c2cn(C)c(=O)c(Nc3ccc(C4C(=O)N(C)CCN4C)cc3)n2)c(C)c1NC(=O)c1cc2c(s1)CCCC2 (racemic)
2 | 6 mL/min/kg | 680 nM | 6 mL/min/kg | 6 mL/min/kg |  | Cc1c(-c2cc(Nc3cc4n(n3)CCN(C)C4)c(=O)[nH]n2)ccc(F)c1NC(=O)c1cc2ncccc2s1
3 | 6 mL/min/kg |  |  |  |  | Cc1c(-c2cn(C)c(=O)c(Nc3ccc(C4C(=O)N(C)CCN4C)cc3)n2)ccc(F)c1NC(=O)c1cc2c(s1)CCCC2 (stereo in doubt; 13)
4 | < 6 mL/min/kg | 50 nM | > 15 mL/min/kg | > 15 mL/min/kg |  | CN1CCn2nc(Nc3cc(-c4ccc(F)c(NC(=O)c5cc6ccccc6s5)c4)n[nH]c3=O)cc2C1
5 | 6 mL/min/kg | 54 nM | > 15 mL/min/kg | 6 mL/min/kg | 4 nM | Cc1c(-c2cc(Nc3cc4n(n3)CCN(C)C4)c(=O)[nH]n2)ccc(F)c1NC(=O)c1ccc(C(C)(C)C)cc1
6 | > 15 mL/min/kg |  |  |  |  | CN1CCN(C)C(c2ccc(Nc3nc(-c4cccc(NC(=O)c5cc6c(s5)CCCC6)c4Cl)cn(C)c3=O)cc2)C1=O (racemic)
7 | 6 mL/min/kg |  |  |  |  | CN1CCN(C)C(c2ccc(Nc3nc(-c4ccc(F)c(NC(=O)c5cc6c(s5)CCCC6)c4)cn(C)c3=O)cc2)C1=O (stereo in doubt; 8)
8 | < 6 mL/min/kg |  |  |  |  | CN1CCN(C)C(c2ccc(Nc3nc(-c4ccc(F)c(NC(=O)c5cc6c(s5)CCCC6)c4)cn(C)c3=O)cc2)C1=O (stereo in doubt; 7)
9 | 6 mL/min/kg | 200 nM | 6 mL/min/kg |  | 11 nM | Cc1ccc(-c2cc(Nc3cc4n(n3)CCN(C)C4)c(=O)[nH]n2)c(F)c1NC(=O)c1cc2ccccc2s1
10 | 6 mL/min/kg |  |  |  |  | Cc1c(-c2cn(C)c(=O)c(Nc3ccc(C4C(=O)N(C)CCN4C)cc3)n2)ccc(Cl)c1NC(=O)c1cc2c(s1)CCCC2 (racemic)
11 | 6 mL/min/kg |  |  |  |  | CN1CCN(C)C(c2ccc(Nc3nc(-c4ccc(Cl)c(NC(=O)c5cc6c(s5)CCCC6)c4)cn(C)c3=O)cc2)C1=O (racemic)
12 | < 6 mL/min/kg |  |  |  |  | Cc1c(-c2cn(C)c(=O)c(Nc3ccc(C4C(=O)N(C)CCN4C)cc3)n2)ccc(F)c1NC(=O)c1cc2c(s1)CCCC2 (stereo in doubt; 14)
13 | < 6 mL/min/kg |  |  |  |  | CN1CCN(C)C(c2ccc(Nc3nc(-c4ccc(Cl)c(NC(=O)c5cc6c(s5)CCCC6)c4F)cn(C)c3=O)cc2)C1=O (configuration not stated)
14 | 6 mL/min/kg |  |  |  |  | CN1CCN(C)C(c2ccc(Nc3nc(-c4ccc(Cl)c(NC(=O)c5cc6c(s5)CCCC6)c4Cl)cn(C)c3=O)cc2)C1=O (racemic)
15 | < 6 mL/min/kg |  |  |  |  | Cc1ccc(-c2cn(C)c(=O)c(Nc3ccc([C@@H]4C(=O)N(C)CCN4C)cc3)n2)c(F)c1NC(=O)c1cc2c(s1)CCCC2
16 | < 6 mL/min/kg | 387 nM | > 15 mL/min/kg |  |  | Cc1ccc(-c2cc(Nc3cc4n(n3)CCN(C)C4)c(=O)[nH]n2)c(C)c1NC(=O)c1cc2ccccc2s1
17 | 6 mL/min/kg |  |  |  |  | CN1CCN(C)C(c2ccc(Nc3nc(-c4ccc(F)c(NC(=O)c5cc6c(s5)CCCC6)c4F)cn(C)c3=O)cc2)C1=O (configuration not stated)
18 | > 15 mL/min/kg | 41 nM | > 15 mL/min/kg |  |  | Cc1c(NC(=O)c2cc3ccccc3s2)cccc1-c1cc(Nc2cc3n(n2)CCN(C)C3)c(=O)[nH]n1
19 | < 6 mL/min/kg |  |  |  |  | Cc1ccc(-c2cn(C)c(=O)c(Nc3ccc(C4C(=O)N(C)CCN4C)cc3)n2)c(Cl)c1NC(=O)c1cc2c(s1)CCCC2 (configuration not stated)
20 | > 15 mL/min/kg |  |  |  |  | CN1CCN(C)C(c2ccc(Nc3nc(-c4cccc(NC(=O)c5cc6c(s5)CCCC6)c4F)cn(C)c3=O)cc2)C1=O (racemic)
21 | < 6 mL/min/kg |  |  |  |  | Cc1ccc(-c2cn(C)c(=O)c(Nc3ccc([C@H]4C(=O)N(C)CCN4C)cc3)n2)c(F)c1NC(=O)c1cc2c(s1)CCCC2
22 | > 15 mL/min/kg |  |  |  |  | CN1CCN(C)C(c2ccc(Nc3nc(-c4cccc(NC(=O)c5cc6c(s5)CCCC6)c4)cn(C)c3=O)cc2)C1=O (racemic)
23 |  | 18 nM | > 15 mL/min/kg | 6 mL/min/kg |  | CN1CCn2nc(Nc3cc(-c4ccc(F)c(NC(=O)c5cc6ccccc6s5)c4F)n[nH]c3=O)cc2C1
24 | 6 mL/min/kg | 90 nM | 6 mL/min/kg | 6 mL/min/kg | 4 nM | Cc1c(-c2cc(Nc3cc4n(n3)CCN(C)C4)c(=O)[nH]n2)ccc(F)c1NC(=O)c1cnc(C(C)(C)C)cn1
25 | < 6 mL/min/kg |  |  |  |  | CN1CCN(C)C(c2ccc(Nc3nc(-c4ccc(C#N)c(NC(=O)c5cc6c(s5)CCCC6)c4)cn(C)c3=O)cc2)C1=O (racemic)
26 | 6 mL/min/kg | 740 nM | 6 mL/min/kg |  |  | Cc1c(-c2cc(Nc3cc4n(n3)CCN(C)C4)c(=O)[nH]n2)ccc(F)c1NC(=O)c1cc2cccnc2s1

Row | Compound | CLH (Liver microsome [1]) | IC50 [2] | CLH (Liver microsome [3]) | CLH (Hepatocyte) | IC50 [4]
27 | Cc1c(NC(=O)c2cc3c(s2)CCCC3)cccc1-c1cn(C)c(=O)c(Nc2ccc([C@@H]3C(=O)N(C)CCN3C)cc2)n1 | > 15 mL/min/kg |  |  |  | 
